{"source": "patent US20240279236A1", "about": "“COMPOUNDS AND METHODS OF TREATING TUBERCULOSIS” (Fimbrion Therapeutics, Inc., priority 2021, published 2024)", "note": "pIC50: −log10 of the molar value."}
{"test_system": "WT Mtb Erdman strain", "assay": "Microplate Alamar Blue Assay (MABA), Mtb growth inhibition", "type": "cell-based, Mycobacterium tuberculosis", "settings": "Mycobacterium tuberculosis, ERDMAN, 168 h, Middlebrook 7H9 media, 7 days at 37° C. in 5% CO2"}
{"compound": "Cc1cc2c(NCCCc3ccc(-c4ccc(OC(F)(F)F)cc4)cc3)nc(-c3ccoc3)nc2s1", "note": "[Example 291, 2-(furan-3-yl)-6-methyl-N-(3-(4′-(trifluoromethoxy)-[1,1′-biphenyl]-4-yl)propyl)thieno [2,3-d]pyrimidin-4-amine]", "pIC50": 8.10}
{"compound": "CSc1nc(NCCCc2ccc(-c3ccc(OC(F)(F)F)cc3)cc2)c2nc(C)sc2n1", "note": "[Example 292, 2-methyl-5-(methylthio)-N-(3-(4′-(trifluoromethoxy)-[1,1′-biphenyl]-4-yl)propyl)thiazolo [5,4-d]pyrimidin-7-amine]", "pIC50": 7.80}
{"compound": "Cc1cc2c(NCCCc3ccc(-c4cccnc4)cc3)nc(C(F)(F)F)nc2s1", "note": "[Example 293, 6-methyl-N-(3-(4-(pyridin-3-yl)phenyl)propyl)-2-(trifluoromethyl) thieno [2,3-d]pyrimidin-4-amine]", "pIC50": 5.60}
{"compound": "Cc1nc2c(NCCCc3ccc(-c4ccc(OC(F)(F)F)cc4)cc3)nc(-c3ccoc3)nc2s1", "note": "[Example 294, 5-(furan-3-yl)-2-methyl-N-(3-(4′-(trifluoromethoxy)-[1,1′-biphenyl]-4-yl)propyl)thiazolo [5,4-d]pyrimidin-7-amine]", "pIC50": 7.05}
{"compound": "Cc1cc2c(NCCCc3ccc(-c4ccc(OC(F)(F)F)cc4)cc3)nc(-c3ccc(F)cc3)nc2s1", "note": "[Example 295, 2-(4-fluorophenyl)-6-methyl-N-(3-(4′-(trifluoromethoxy)-[1,1′-biphenyl]-4-yl)propyl)thieno [2,3-d]pyrimidin-4-amine]", "pIC50": 6.40}
{"compound": "FC(F)(F)Oc1ccc(-c2ccc(CCCNc3nc(C(F)(F)F)nc4sccc34)cc2)cc1", "note": "[Example 296, N-(3-(4′-(trifluoromethoxy)-[1,1′-biphenyl]-4-yl)propyl)-2-(trifluoromethyl) thieno[2,3-d]pyrimidin-4-amine]", "pIC50": 6.57}
{"compound": "CCc1nc(NCCCc2ccc(-c3ccc(C(F)(F)F)nc3)cc2)c2cc(C)sc2n1", "note": "[Example 297, 2-ethyl-6-methyl-N-(3-(4-(6-(trifluoromethyl)pyridin-3-yl)phenyl)propyl) thieno[2,3-d]pyrimidin-4-amine]", "pIC50": 7.47}
{"compound": "Cc1cc2c(NCCCc3ccc(-c4ccc(Cl)c(Cl)c4)cc3)nc(-c3ccoc3)nc2s1", "note": "[Example 298, N-(3-(3′,4′-dichloro-[1,1′-biphenyl]-4-yl)propyl)-2-(furan-3-yl)-6-methylthieno[2,3-d]pyrimidin-4-amine]", "pIC50": 7.59}
{"compound": "CCc1nc(NCCCc2ccc(-c3ccc(N(C)C)cc3)cc2)c2cc(C)sc2n1", "note": "[Example 299, N-(3-(4′-(dimethylamino)-[1,1′-biphenyl]-4-yl)propyl)-2-ethyl-6-methylthieno[2,3-d]pyrimidin-4-amine]", "pIC50": 7.59}
{"compound": "CCc1nc(NCCCc2ccc(-c3ccc(Cl)cc3Cl)cc2)c2cc(C)sc2n1", "note": "[Example 300, N-(3-(2′,4′-dichloro-[1,1′-biphenyl]-4-yl)propyl)-2-ethyl-6-methylthieno[2,3-d]pyrimidin-4-amine]", "pIC50": 7.12}
{"compound": "CCc1nc(NCCCc2ccc(-c3ccc(Cl)c(F)c3)cc2)c2cc(C)sc2n1", "note": "[Example 301, N-(3-(4′-chloro-3′-fluoro-[1,1′-biphenyl]-4-yl)propyl)-2-ethyl-6-methylthieno[2,3-d]pyrimidin-4-amine]", "pIC50": 7.35}
{"compound": "CCc1nc(NCCCc2ccc(-c3ccc(C4CC4)cc3)cc2)c2cc(C)sc2n1", "note": "[Example 302, N-(3-(4′-cyclopropyl-[1,1′-biphenyl]-4-yl)propyl)-2-ethyl-6-methylthieno[2,3-d]pyrimidin-4-amine]", "pIC50": 7.57}
{"compound": "CCc1nc(NCCCc2ccc(-c3ccc(C#N)cc3)cc2)c2cc(C)sc2n1", "note": "[Example 303, 4′-(3-((2-ethyl-6-methylthieno[2,3-d]pyrimidin-4-yl)amino)propyl)-[1,1′-biphenyl]-4-carbonitrile]", "pIC50": 7.43}
{"compound": "CCc1nc(NCCCc2ccc(-c3ccc(F)cc3)cc2)c2cc(C)sc2n1", "note": "[Example 304, 2-ethyl-N-(3-(4′-fluoro-[1,1′-biphenyl]-4-yl)propyl)-6-methylthieno[2,3-d]pyrimidin-4-amine]", "pIC50": 7.40}
{"compound": "CCc1nc(NCCCc2ccc(-c3ccc(OC4CC4)cc3)cc2)c2cc(C)sc2n1", "note": "[Example 305, N-(3-(4′-cyclopropoxy-[1,1′-biphenyl]-4-yl)propyl)-2-ethyl-6-methylthieno[2,3-d]pyrimidin-4-amine]", "pIC50": 7.24}
{"compound": "CCc1nc(NCCCc2ccc(-c3ccc(OC(F)(F)F)c(F)c3)cc2)c2cc(C)sc2n1", "note": "[Example 306, 2-ethyl-N-(3-(3′-fluoro-4′-(trifluoromethoxy)-[1,1′-biphenyl]-4-yl)propyl)-6-methylthieno[2,3-d]pyrimidin-4-amine]", "pIC50": 7.33}
{"compound": "CCc1nc(NCCCc2ccc(-c3c(Cl)cccc3Cl)cc2)c2cc(C)sc2n1", "note": "[Example 307, N-(3-(2′,6′-dichloro-[1,1′-biphenyl]-4-yl)propyl)-2-ethyl-6-methylthieno[2,3-d]pyrimidin-4-amine]", "pIC50": 6.08}
{"compound": "CCc1nc(NCCCc2ccc(-c3cc(Cl)cc(Cl)c3)cc2)c2cc(C)sc2n1", "note": "[Example 308, N-(3-(3′,5′-dichloro-[1,1′-biphenyl]-4-yl)propyl)-2-ethyl-6-methylthieno[2,3-d]pyrimidin-4-amine]", "pIC50": 6.62}
{"compound": "CCc1nc(NCCCc2ccc(-c3ccc(F)c(Cl)c3)cc2)c2cc(C)sc2n1", "note": "[Example 309, N-(3-(3′-chloro-4′-fluoro-[1,1′-biphenyl]-4-yl)propyl)-2-ethyl-6-methylthieno[2,3-d]pyrimidin-4-amine]", "pIC50": 7.00}
{"compound": "CCc1nc(NCCCc2ccc(-c3cc(Cl)ccc3Cl)cc2)c2cc(C)sc2n1", "note": "[Example 310, N-(3-(2′,5′-dichloro-[1,1′-biphenyl]-4-yl)propyl)-2-ethyl-6-methylthieno[2,3-d]pyrimidin-4-amine]", "pIC50": 6.42}
{"compound": "CCc1nc(NCCCc2ccc(-c3ccc(C(F)(F)F)cc3)cc2)c2cc(C)sc2n1", "note": "[Example 311, 2-ethyl-6-methyl-N-(3-(4′-(trifluoromethyl)-[1,1′-biphenyl]-4-yl)propyl)thieno [2,3-d]pyrimidin-4-amine]", "pIC50": 7.57}
{"compound": "Cc1cc2c(NCCCCc3ccc(-c4ccc(OC(F)(F)F)cc4)cc3)nc(-c3ccoc3)nc2s1", "note": "[Example 312, 2-(furan-3-yl)-6-methyl-N-(4-(4′-(trifluoromethoxy)-[1,1′-biphenyl]-4-yl)butyl)thieno [2,3-d]pyrimidin-4-amine]", "pIC50": 6.42}
{"compound": "Cc1cc2c(NCCCc3ccc(-c4ccc(OC(F)(F)F)cc4)cc3F)nc(-c3ccoc3)nc2s1", "note": "[Example 313, N-(3-(3-fluoro-(trifluoromethoxy)-[1,1′-biphenyl]-4-′-yl)propyl)-2-(furan-3-yl)-6-methylthieno[2,3-d]pyrimidin-4-amine]", "pIC50": 7.30}
{"compound": "Cc1cc2c(NCCCc3ccc(-c4ccc([N+](=O)[O-])cc4)cc3)nc(N(C)C)nc2s1", "note": "[Example 314, N2,N2,6-trimethyl-N4-(3-(4′-nitro-[1,1′-biphenyl]-4-yl)propyl)thieno [2,3-d]pyrimidine-2,4-diamine]", "pIC50": 8.52}
{"compound": "Cc1cc2c(NCCCc3ccc(-c4ccc(OC(F)(F)F)cc4)c(F)c3)nc(-c3ccoc3)nc2s1", "note": "[Example 315, N-(3-(2-fluoro-4′-(trifluoromethoxy)-[1,1′-biphenyl]-4-yl)propyl)-2-(furan-3-yl)-6-methylthieno[2,3-d]pyrimidin-4-amine]", "pIC50": 7.92}
